Assay results reported in patent US20100120884A1, “USE OF DITHIINE-TETRACARBOXIMIDES FOR CONTROLLING PHYTOPATHOGENIC FUNGI” (priority 2008, published 2010).

Tested on: not listed separately
Experiment: physchem
Assay type: physicochemical
Conditions: pH 2.7
Procedure: The determination of the logP values detailed in the tables and preparation examples hereinabove is carried out in accordance with EEC Directive 79/831 Annex V.A8 by means of HPLC (High Performance Liquid Chromatography) on a reversed-phase column (C 18). Temperature: 43° C.
The determination is carried out in the acidic range at pH 2.7, using 0.1% strength aqueous formic acid and acetonitrile (contains 0.1% formic acid) as eluents; linear gradient from 10% acetonitrile to 95% acetonitrile.
Calibration is carried out using unbranched alkan-2-ones (with 3 to 16 carbon atoms) with known logP values (determination of the logP values with reference to the retention times by linear interpolation between two successive alkanones).

| chromatographic logP | SMILES | log P |
| --- | --- | --- |
| 3.86 | O=c1c2sc3c(=O)n(CCOc4ccccc4)c(=O)c3sc2c(=O)n1CCOc1ccccc1 [Compound 15, 2,6-Bis(2-phenoxyethyl)-1H,5H-[1,4]dithiino[2,3-c:5,6-c′]dipyrrole-1,3,5,7(2H,6H)-tetrone] |  |
| 1.13 | O=c1[nH]c(=O)c2sc3c(=O)[nH]c(=O)c3sc12 [Compound 8, 1H,5H-[1,4]Dithiino[2,3-c:5,6-c′]dipyrrole-1,3,5,7(2H,6H)-tetrone] |  |
| 1.76 | CC(C(=O)O)n1c(=O)c2sc3c(=O)n(C(C)C(=O)O)c(=O)c3sc2c1=O (centres unmarked) [Compound 24, 2,2′-(1,3,5,7-Tetraoxo-1,3,5,7-tetrahydro-2H,6H-[1,4]dithiino[2,3-c:5,6-c′]dipyrrole-2,6-diyl)dipropanoic acid] |  |
| 1.73 | CCOC(=O)C(CC)n1c(=O)c2sc3c(=O)n(C(CC)C(=O)O)c(=O)c3sc2c1=O (centres unmarked) [Compound 41, 2-[2-(1-Ethoxy-1-oxobutan-2-yl)-1,3,5,7-tetraoxo-2,3,5,7-tetrahydro-1H,6H-[1,4]dithiino[2,3-c:5,6-c′]-dipyrrole-6-yl]butanoic acid] |  |
| 4.03 | O=c1c2sc3c(=O)n(C4(C(F)(F)F)CC4)c(=O)c3sc2c(=O)n1C1(C(F)(F)F)CC1 [Compound 7, 2,6-Bis[1-(trifluoromethyl)cyclopropyl]-1H,5H-[1,4]dithiino[2,3-c:5,6-c′]dipyrrole-1,3,5,7(2H,6H)-tetrone] |  |
| 2.13 | CCn1c(=O)c2sc3c(=O)[nH]c(=O)c3sc2c1=O [Compound 39, 2-Ethyl-1H,5H-[1,4]dithiino[2,3-c:5,6-c′]dipyrrole-1,3,5,7(2H,6H)-tetrone] |  |
| 1.99 | CC(CC(=O)O)n1c(=O)c2sc3c(=O)n(C(C)CC(=O)O)c(=O)c3sc2c1=O (centres unmarked) [Compound 28, 3,3′-(1,3,5,7-Tetraoxo-1,3,5,7-tetrahydro-2H,6H-[1,4]dithiino[2,3-c:5,6-c′]dipyrrole-2,6-diyl)dibutanoic acid] |  |
| 4.6 | O=c1c2sc3c(=O)n(Cc4ccccc4)c(=O)c3sc2c(=O)n1Cc1ccccc1 [Compound 11, 2,6-Dibenzyl-1H,5H-[1,4]dithiino[2,3-c:5,6-c′]dipyrrole-1,3,5,7(2H,6H)-tetrone] |  |
| 2.55 | COCCn1c(=O)c2sc3c(=O)n(CCOC)c(=O)c3sc2c1=O [Compound 12, 2,6-Bis(2-methoxyethyl)-1H,5H-[1,4]dithiino[2,3-c:5,6-c′]dipyrrole-1,3,5,7(2H,6H)-tetrone] |  |
| 2.27 | CCC(O)Cn1c(=O)c2sc3c(=O)n(CC(O)CC)c(=O)c3sc2c1=O (centres unmarked) [Compound 13, 2,6-Bis(2-hydroxybutyl)-1H,5H-[1,4]dithiino[2,3-c:5,6-c′]dipyrrole-1,3,5,7(2H,6H)-tetrone] |  |
|  | CCCCC(C(=O)OCC)n1c(=O)c2sc3c(=O)n(C(CCCC)C(=O)OCC)c(=O)c3sc2c1=O (centres unmarked) [Compound 40, Diethyl 2,2′-(1,3,5,7-tetraoxo-1,3,5,7-tetrahydro-2H,6H-[1,4]dithiino[2,3-c:5,6-e]dipyrrole-2,6-diyl)di-hexanoate] | log P = 4.66 |
| 3.65 | CC(C)(O)Cn1c(=O)c2sc3c(=O)n(CC(C)(C)O)c(=O)c3sc2c1=O [Compound 34, 2,6-Bis(2-hydroxy-2-methylpropyl)-1H,5H-[1,4]dithiino[2,3-c:5,6-c′]dipyrrole-1,3,5,7(2H,6H)-tetrone] |  |
| 3.09 | CCC(Cn1c(=O)c2sc3c(=O)n(CC(CC)OC(C)=O)c(=O)c3sc2c1=O)OC(C)=O (centres unmarked) [Compound 35, (1,3,5,7-Tetraoxo-1,3,5,7-tetrahydro-2H,6H-[1,4]dithiino[2,3-c:5,6-c′]dipyrrole-2,6-diyl)dibutane-1,2-diyl diacetate] |  |
| 2.02 | O=C(O)CCCCn1c(=O)c2sc3c(=O)n(CCCCC(=O)O)c(=O)c3sc2c1=O [Compound 29, 5,5′-(1,3,5,7-Tetraoxo-1,3,5,7-tetrahydro-2H,6H-[1,4]dithiino[2,3-c:5,6-c′]dipyrrole-2,6-diyl)dipentanoic acid] |  |
| 3.09 | CC(=O)OC(C)Cn1c(=O)c2sc3c(=O)n(CC(C)OC(C)=O)c(=O)c3sc2c1=O (centres unmarked) [Compound 36, (1,3,5,7-Tetraoxo-1,3,5,7-tetrahydro-2H,6H-[1,4]dithiino[2,3-c:5,6-c′]dipyrrole-2,6-diyl)dipropane-1,2-diyl diacetate] |  |
| 4.91 | O=c1c2sc3c(=O)n(-c4cccc(C(F)(F)F)c4)c(=O)c3sc2c(=O)n1-c1cccc(C(F)(F)F)c1 [Compound 31, 2,6-Bis[3-(trifluoromethyl)phenyl]-1H,5H-[1,4]dithiino[2,3-c:5,6-c′]dipyrrole-1,3,5,7(2H,6H)-tetrone] |  |
| 4.19 | CC(C)n1c(=O)c2sc3c(=O)n(C(C)C)c(=O)c3sc2c1=O [Compound 4, 2,6-Di(propan-2-yl)-1H,5H-[1,4]dithiino[2,3-c:5,6-c′]dipyrrole-1,3,5,7(2H,6H)-tetrone] |  |
| 3.24 | CCOCCn1c(=O)c2sc3c(=O)n(CCOCC)c(=O)c3sc2c1=O [Compound 16, 2,6-Bis(2-ethoxyethyl)-1H,5H-[1,4]dithiino[2,3-c:5,6-c′]dipyrrole-1,3,5,7(2H,6H)-tetrone] |  |
| 3.12 | O=C(O)C(Cc1ccccc1)n1c(=O)c2sc3c(=O)n(C(Cc4ccccc4)C(=O)O)c(=O)c3sc2c1=O (centres unmarked) [Compound 32, 2,2′-(1,3,5,7-Tetraoxo-1,3,5,7-tetrahydro-2H,6H-[1,4]dithiino[2,3-c:5,6-c′]dipyrrole-2,6-diyl)bis(3-phenyl-propanoic acid)] |  |
| 1.63 | CC(O)Cn1c(=O)c2sc3c(=O)n(CC(C)O)c(=O)c3sc2c1=O (centres unmarked) [Compound 14, 2,6-Bis(2-hydroxypropyl)-1H,5H-[1,4]dithiino[2,3-c:5,6-c′]dipyrrole-1,3,5,7(2H,6H)-tetrone] |  |
| 3.41 | O=c1c2sc3c(=O)n(CC(F)(F)F)c(=O)c3sc2c(=O)n1CC(F)(F)F [Compound 6, 2,6-Bis(2,2,2-trifluoroethyl)-1H,5H-[1,4]dithiino[2,3-c:5,6-c′]dipyrrole-1,3,5,7(2H,6H)-tetrone] |  |

| SMILES | chromatographic logP | log P |
| --- | --- | --- |
| Cn1c(=O)c2sc3c(=O)n(C)c(=O)c3sc2c1=O [Compound 1, 2,6-Dimethyl-1H,5H-[1,4]dithiino[2,3-c:5,6-c′]dipyrrole-1,3,5,7(2H,6H)-tetrone] | 2.32 |  |

Tested on: Pyrenophora teres
Experiment: Pyrenophora teres test (barley)/protective
Assay type: in vivo
Conditions: protective spray, 1000 ppm active substance, evaluation 8 days after inoculation
Procedure: Pyrenophora teres Test (Barley)/Protective
To prepare a suitable preparation of active substance, 1 part by weight of active substance is mixed with the stated amounts of solvent and emulsifier, and the concentrate is diluted with water to the desired concentration.
To test for protective activity, young plants are sprayed with the active substance preparation at the application rate detailed. After the spray coating has dried on, the plants are sprayed with a spore suspension of Pyrenophora teres. The plants remain in an incubation cabinet for 48 hours at 20° C. and 100% relative atmospheric humidity. The plants are placed in a greenhouse at a temperature of approximately 20° C. and a relative atmospheric humidity of approximately 80%.
Evaluation is carried out 8 days after the inoculation. 0% means an efficacy which corresponds to that of the control, while an efficacy of 100% means that no disease is observed.

| SMILES | efficacy [%] |
| --- | --- |
| Cn1c(=O)c2sc3c(=O)n(C)c(=O)c3sc2c1=O [Compound 1, 2,6-Dimethyl-1H,5H-[1,4]dithiino[2,3-c:5,6-c′]dipyrrole-1,3,5,7(2H,6H)-tetrone] | ≥ 70 |
